≈ marks a conversion by molar mass, not a printed value. Where “and” joins values, the source holds several entries; their conditions need not be identical. Equal entries are not always repeated.
What was measured:
MLP15 [1] = target: T1, MLP15 (Papaver somniferum, UniProt P19825); test: ANS displacement assay; settings: for IC50: IC50, MLP15; for IC50 / Log10IC50: 10 µM protein and 10 µM ANS, CBS pH 5.5; for Log10IC50 / Hill Slope: MLP15; for Hill Slope: ANS displacement dose-response fit
T1 sequence (P19825 1-159): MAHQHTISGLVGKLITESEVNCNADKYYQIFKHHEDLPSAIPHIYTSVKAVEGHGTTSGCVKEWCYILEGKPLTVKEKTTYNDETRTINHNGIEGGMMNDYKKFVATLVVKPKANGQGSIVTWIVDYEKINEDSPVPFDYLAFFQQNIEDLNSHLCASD
Method: (§5) 8-anilino-1-naphthalenesulfonic acid (ANS) fluorescence binding curves and the binding-induced reduction in ANS fluorescence resulting from competition with tested ligands across a range of concentration facilitated the measurement of IC50 and an estimate of Kd values using the binding models and procedures described previously[70]. […] ANS was dissolved in dimethylsufoxide at a concentration of 20 mM, stored at −20 °C until dilution and protected from exposure to light. […] 40 µl of the ANS solution and 40 µl of each MLP/PR10 protein solution were combined to 80 µl final reaction volumes, which were incubated at 21 °C for 10 min to allow equilibration of binding. Triplicate 18-µl aliquots were withdrawn from each 80 µl reaction, transferred to optically clear PCR tubes (Diamed, Canada) and ANS fluorescence was measured following an additional 3-min incubation at 30 °C using a Qiagen Rotor-gene Q 6-plex with excitation and emission filters of 365 ± 20 nm and 460 ± 20 nm, respectively. An identical reaction series whereby protein was omitted from the mixtures was measured under identical conditions and trace fluorescence was subtracted from each MLP/PR10 protein-containing sample. Each data set was scaled so that the maximum observed fluorescence corresponded to 100% and individual data points were plotted, and a rectangular hyperbolic ligand binding function was fit, using least-squares analysis (Prism 5 software, Graphpad, USA). Experiments were repeated at least twice with independently prepared protein.
(§6) Displacement of ANS is associated with reduced fluorescence. […] Briefly, 40 µl of 20 µM ANS and individual MLP/ PR10 protein solutions were combined in CBS buffer, pH 5.5, incubated at 21 °C for 5 min, mixed with 40 µl of separate 0 to 6 mM BIA solutions in CBS buffer, pH 5.5, and the 80 µl reactions were subsequently incubated for 10 min at 21 °C. Fluorescence was measured as described above, including subtraction of any fluorescence in a blank series whereby protein was omitted. […] Each experiment was repeated at least twice with independently prepared MLP/PR10 proteins and BIA ligand.

NISO [2] = target: T2, NISO (Papaver somniferum, UniProt P0DYP9); test: ANS displacement assay; settings: for IC50: IC50, NISO; for IC50 / Log10IC50: 10 µM protein and 10 µM ANS, CBS pH 5.5; for Log10IC50 / Hill Slope: NISO; for Hill Slope: ANS displacement dose-response fit
Method: as §5, §6

[3] = Ligand solubility threshold in ITC buffer; type: physicochemical; settings: filtered dialysis buffer (CBS, 21 °C, aqueous buffer, thermodynamic from solid); pH 5.5, ITC buffer
Method: ITC experiments were conducted using a Microcal VP instrument (Malvern Pananalytical, Malvern, UK). Recombinant MLP/PR10 protein preparation involving production in Escherichia coli followed by cobalt-affinity chromatography was optimized to yield relatively high purity in a single step as determined by SDS-PAGE and colloidal Coomassie blue silver staining. The less than 48 h decrease in atmospheric oxygen exposure generated high-quality proteins with reduced precipitate. […] Eluates were twice dialysed to equilibrium (i.e., 10–12 h at 4 °C) against a 1000-fold (2–4 L) volume of PBS, pH 7.4 (25 mM sodium phosphate, 50 mM NaCl) or CBS, pH 5.5, resulting in a theoretical million-fold dilution of undesired small molecules (e.g., <0.2 µM imidazole). […] Any precipitate was separated from the remaining soluble protein fraction which was quantified by absorption at A280nm and diluted with filtered dialysis buffer immediately before use.
Thermograms were recorded at 25 °C, with a reference power of 10 (dpu/sec) and monitoring of 30 injections of 9 µl BIA ligand solutions into a sample cell containing 1.4 ml of an MLP/PR10 protein solution, with 300 seconds between injections. […] After subtraction, binding isotherms were analyzed in MicroCal Origin 7 (MicroCal, USA) by fitting a single-site binding model using non-linear least squares regression analysis repeated until convergence. […]

MLP2 = test: ANS displacement assay; type: binding, Papaver somniferum; settings: for IC50 / Log10IC50: 10 µM protein and 10 µM ANS, CBS pH 5.5; for Kd: from average IC50 and PR10-ANS Kd, competitive inhibition assumed, read-out: Estimated Kd
From the text: (§1) Eluates were store separately on ice.
(§2) Displacement of ANS is associated with reduced fluorescence.

PR10-4 = test: ANS displacement assay; type: binding, Papaver somniferum
From the text: as §1, §2

PR10-12 [4] = test: ANS displacement assay; type: binding, Papaver somniferum; settings: for IC50 / Log10IC50: 10 µM protein and 10 µM ANS, CBS pH 5.5; for Kd: from average IC50 and PR10-ANS Kd, competitive inhibition assumed, read-out: Estimated Kd
From the text: as §1, §2

MLP15 [5] = target: T1, MLP15; test: Isothermal titration calorimetry; type: binding; set-up: made in house; host or cells: E. coli ArcticExpress (DE3); settings: ITC thermogram, injections into buffer and MLP15
Method: ITC experiments were conducted using a Microcal VP instrument (Malvern Pananalytical, Malvern, UK). […] Dialysis was carried out in boiled Spectra/Por 1 6–8 kDa MWCO 0.32 ml/cm (Spectrum Labs, USA) tubing thoroughly washed with either buffer before use. The second 1000-fold volume of dialysis buffer was filtered and degassed using a reusable bottle-top filtration apparatus (Nalgene, USA) with disposable […] cellulose filters (VWR, Canada) prior to storage at 4 °C. Ligands were dissolved in the filtered dialysis buffer at 21 °C for approximately one hour, and any insoluble material was removed by repeated centrifugation at 21,000 × g for 10 min. […] Prior to ITC, which was initiated immediately following dialysis, the protein solutions were centrifuged at 17,000 × g and 4 °C for 30 min. Any precipitate was separated from the remaining soluble protein fraction which was quantified by absorption at A280nm and diluted with filtered dialysis buffer immediately before use.
(§3) Thermograms were recorded at 25 °C, with a reference power of 10 (dpu/sec) and monitoring of 30 injections of 9 µl BIA ligand solutions into a sample cell containing 1.4 ml of an MLP/PR10 protein solution, with 300 seconds between injections. […] To ensure that we report only the heat of reaction for each interaction, independent titrations of ligand into buffer, and buffer into protein solutions, were used to calculate and then subtract heats of dilution. After subtraction, binding isotherms were analyzed in MicroCal Origin 7 (MicroCal, USA) by fitting a single-site binding model using non-linear least squares regression analysis repeated until convergence. […] Each ITC experiment was repeated 2 to 4 times.

THS2 [6] = target: T3, THS2 (Papaver somniferum, UniProt A0A2U9GGW3); test: ANS displacement assay
Method: as §5, §6

PR10-12 [7] = test: Isothermal titration calorimetry; type: binding, Papaver somniferum; settings: ITC, PBS pH 7.4, 25 °C, single-site model
Method: (§4) ITC experiments were conducted using a Microcal VP instrument (Malvern Pananalytical, Malvern, UK). Recombinant MLP/PR10 protein preparation involving production in Escherichia coli followed by cobalt-affinity chromatography was optimized to yield relatively high purity in a single step as determined by SDS-PAGE and colloidal Coomassie blue silver staining. The less than 48 h decrease in atmospheric oxygen exposure generated high-quality proteins with reduced precipitate. […] Eluates were twice dialysed to equilibrium (i.e., 10–12 h at 4 °C) against a 1000-fold (2–4 L) volume of PBS, pH 7.4 (25 mM sodium phosphate, 50 mM NaCl) or CBS, pH 5.5, resulting in a theoretical million-fold dilution of undesired small molecules (e.g., <0.2 µM imidazole). Dialysis was carried out in boiled Spectra/Por 1 6–8 kDa MWCO 0.32 ml/cm (Spectrum Labs, USA) tubing thoroughly washed with either buffer before use. The second 1000-fold volume of dialysis buffer was filtered and degassed using a reusable bottle-top filtration apparatus (Nalgene, USA) with disposable […] cellulose filters (VWR, Canada) prior to storage at 4 °C. Ligands were dissolved in the filtered dialysis buffer at 21 °C for approximately one hour, and any insoluble material was removed by repeated centrifugation at 21,000 × g for 10 min. No change in pH occurred following substrate addition. Prior to ITC, which was initiated immediately following dialysis, the protein solutions were centrifuged at 17,000 × g and 4 °C for 30 min. Any precipitate was separated from the remaining soluble protein fraction which was quantified by absorption at A280nm and diluted with filtered dialysis buffer immediately before use.
as §3, with “injections. Protein concentrations varied from 10 to 150 µM to achieve an optimal C value and curve shape valid for parameter calculation.” for “injections.”

PR10-10 = target: T4, PR10-10 (Papaver somniferum, UniProt A0A9Y2YA81); test: ANS displacement assay; type: binding; settings: ANS displacement dose-response fit
T4 sequence (A0A9Y2YA81 1-158): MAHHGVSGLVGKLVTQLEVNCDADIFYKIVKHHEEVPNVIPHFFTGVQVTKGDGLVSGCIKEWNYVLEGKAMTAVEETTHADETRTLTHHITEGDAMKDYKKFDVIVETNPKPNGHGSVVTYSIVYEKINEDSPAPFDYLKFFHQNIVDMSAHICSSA
From the text: as §1, §2

THS2 [8] = target: T3, THS2; test: Isothermal titration calorimetry; type: binding; set-up: made in house; host or cells: E. coli ArcticExpress (DE3); settings: ITC, PBS pH 7.4, 25 °C
Method: as §4, with “UK).” for “UK). Recombinant MLP/PR10 protein preparation involving production in Escherichia coli followed by cobalt-affinity chromatography was optimized to yield relatively high purity in a single step as determined by SDS-PAGE and colloidal Coomassie blue silver staining. The less than 48 h decrease in atmospheric oxygen exposure generated high-quality proteins with reduced precipitate.”, “No change in pH occurred following substrate addition.” left out
as §3

NISO [9] = target: T2, NISO; test: Isothermal titration calorimetry; type: binding; set-up: made in house; host or cells: E. coli ArcticExpress (DE3); settings: ITC, PBS pH 7.4, 25 °C
Method: as §4, with “UK).” for “UK). Recombinant MLP/PR10 protein preparation involving production in Escherichia coli followed by cobalt-affinity chromatography was optimized to yield relatively high purity in a single step as determined by SDS-PAGE and colloidal Coomassie blue silver staining. The less than 48 h decrease in atmospheric oxygen exposure generated high-quality proteins with reduced precipitate.”, “No change in pH occurred following substrate addition.” left out
as §3

[10] = 10 µM protein and 10 µM ANS, CBS pH 5.5

T2 sequence (P0DYP9 entry or part of it): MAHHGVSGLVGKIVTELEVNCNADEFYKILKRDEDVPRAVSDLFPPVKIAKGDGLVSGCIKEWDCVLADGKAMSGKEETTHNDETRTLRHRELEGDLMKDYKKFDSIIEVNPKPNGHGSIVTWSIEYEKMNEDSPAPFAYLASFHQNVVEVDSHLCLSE
T3 sequence (A0A2U9GGW3 whole entry): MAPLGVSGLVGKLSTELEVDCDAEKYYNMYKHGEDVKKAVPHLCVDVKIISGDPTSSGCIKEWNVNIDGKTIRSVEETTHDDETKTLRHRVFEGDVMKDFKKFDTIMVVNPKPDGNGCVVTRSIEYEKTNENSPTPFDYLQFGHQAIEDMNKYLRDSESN

For `COc1ccc2c(c1OC)C(=O)O[C@@H]2[C@H]1c2c(cc3c(c2OC)OCO3)CCN1C` [Noscapine, noscapine], the Kd (MLP15 [1]) was 37.8 µM, the IC50 (MLP15 [1]) was 43 µM and 42.6 µM and the Log10IC50 (MLP15 [1]) was 1.63 ± 0.04. For the same compound, the “Hill Slope” value (MLP15 [1]) was -1.18 ± 0.10, the Kd (NISO [2]) was 56.7 µM and the IC50 (NISO [2]) was 66 µM and 66.1 µM. The Log10IC50 (NISO [2]) was 1.82 ± 0.07, the “Hill Slope” value (NISO [2]) was -5.05 ± 6.55 and the solubility [3] was 1100 µM (≈ 455 µg/mL). For the same compound, the IC50 (MLP2) was roughly 40.4 µM, the Log10IC50 (MLP2) was ~ 1.61 ± 0.07 and the Kd (MLP2) was roughly 29.9 µM. For the same compound, the IC50 (PR10-4; [10]) was roughly 126 µM, the Log10IC50 (PR10-4; [10]) was ~ 2.102 ± 0.59 and the Kd (PR10-4; from average IC50 and PR10-ANS Kd, competitive inhibition assumed, read-out: Estimated Kd) was roughly 116 µM. For the same compound, the IC50 (PR10-12 [4]) was roughly 4.18 µM, the Log10IC50 (PR10-12 [4]) was ~ 0.62 ± 0.17 and the Kd (PR10-12 [4]) was roughly 4.07 µM. The “endothermic positive peaks during the initial injections” value (MLP15 [5]) was greater than 0.2 µcal/s, the “exothermic heat-change plateau of the final injections” value (MLP15 [5]) was -0.48 µcal/s and the Kd (THS2 [6]) was roughly 9.66 µM. For the same compound, the IC50 (THS2 [6]; IC50, THS2, 10 µM protein and 10 µM ANS, CBS pH 5.5) was 14 µM and ~14.3 µM, the Log10IC50 (THS2 [6]; THS2, 10 µM protein and 10 µM ANS, CBS pH 5.5) was ~ 1.16 ± 0.48 and the “Hill Slope” value (THS2 [6]; THS2, ANS displacement dose-response fit) was ~ -1.13 ± 0.78.

Work on `COc1ccc2c3c1O[C@H]1[C@@H](O)C=C[C@H]4[C@@H](C2)N(C)CC[C@@]341` [Codeine, codeine] yielded a Kd (MLP15 [1]) of 931 µM, an IC50 (MLP15 [1]) of 1050 µM and a Log10IC50 (MLP15 [1]) of 3.02 ± 0.17. The “Hill Slope” value (MLP15 [1]) was -0.97 ± 0.13, the Kd (NISO [2]) was 24.2 µM and the IC50 (NISO [2]) was 28 µM and 28.2 µM. The Log10IC50 (NISO [2]) was 1.45 ± 0.13, the “Hill Slope” value (NISO [2]) was -0.72 ± 0.13 and the IC50 (MLP2) was 203 µM. It also gave a Log10IC50 (MLP2) of 2.31 ± 0.14, a Kd (MLP2) of 151 µM and an IC50 (PR10-12 [4]) of 1500 µM. It also gave a Log10IC50 (PR10-12 [4]) of 3.18 ± 0.36, a Kd (PR10-12 [4]) of 1460 µM and a Kd (PR10-12 [7]) of 140 ± 13.6 µM. For the same compound, the Kd (PR10-12 [7]; listed as codeine) was 140 µM, the “Hill Slope” value (PR10-10) was ~ 0.13 ± 0.35 and the ΔH (THS2 [8]) was 1.868 ± 0.0686 kcal/mol. The ΔS (THS2 [8]) was 27.2 cal/mol/˚K, the N (THS2 [8]; single-site model) was 0.51 ± 0.0145 and the Kd (THS2 [8]; Kd, single-site model) was 26 µM and 26.5 µM. For the same compound, the ΔH (NISO [9]) was -3.556 ± 0.02607 kcal/mol, the ΔS (NISO [9]) was 13.9 cal/mol/˚K and the N (NISO [9]; single-site model) was 1.07 ± 0.00547. For the same compound, the Kd (NISO [9]; Kd, single-site model) was 2 µM and 2.22 µM.
